Measured values reported in PubChem BioAssay AID330 (DTP/NCI, 2004).
Where “and” joins values, the source holds several entries; their conditions need not be identical. Identical values can stand only once. Toxic doses and inconclusive results are not listed.

Test system: P388 leukemia ip, CD2F1 mice, survival T/C
Assay: NCI In Vivo Anticancer Drug Screen. Data for tumor model P388 Leukemia (intraperitoneal) in CD2F1 (CDF1) mice
Settings: endpoint: median survival time, higher = longer survival
Procedure, shortened: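 Mice carrying the transplanted tumor received test compound or vehicle. Survival was recorded in each group, and the value is the treated-group measurement divided by that of the vehicle-treated control group.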

[1] = dose: 12.5 mg/kg/injection, schedule: Q04DX003 (ip), vehicle: saline
[2] = dose: 12.5 mg/kg/injection, schedule: Q01DX009 (ip), vehicle: other
[3] = dose: 25.0 mg/kg/injection, schedule: Q01DX009 (ip), vehicle: other
[4] = dose: 50.0 mg/kg/injection, schedule: Q01DX009 (ip), vehicle: other
[5] = dose: 100.0 mg/kg/injection, schedule: Q01DX009 (ip), vehicle: other
[6] = dose: 200.0 mg/kg/injection, schedule: Q01DX009 (ip), vehicle: other
[7] = dose: 7.5 mg/kg/injection, schedule: Q01DX005 (ip), vehicle: saline with Tween-80
[8] = dose: 30.0 mg/kg/injection, schedule: Q01DX005 (ip), vehicle: saline with Tween-80
[9] = dose: 60.0 mg/kg/injection, schedule: Q01DX005 (ip), vehicle: saline with Tween-80
[10] = dose: 120.0 mg/kg/injection, schedule: Q01DX005 (ip), vehicle: saline with Tween-80
[11] = dose: 240.0 mg/kg/injection, schedule: Q01DX005 (ip), vehicle: saline with Tween-80
[12] = dose: 100.0 mg/kg/injection, schedule: Q04DX003 (ip), vehicle: saline with Tween-80
[13] = dose: 200.0 mg/kg/injection, schedule: Q04DX003 (ip), vehicle: saline with Tween-80
[14] = dose: 400.0 mg/kg/injection, schedule: Q04DX003 (ip), vehicle: saline with Tween-80
[15] = dose: 100.0 mg/kg/injection, schedule: Q01DX009 (ip), vehicle: Klucel (hydroxypropylcellulose) (HPC)
[16] = dose: 50.0 mg/kg/injection, schedule: Q01DX005 (ip), vehicle: Klucel (hydroxypropylcellulose) (HPC)
[17] = dose: 100.0 mg/kg/injection, schedule: Q01DX005 (ip), vehicle: Klucel (hydroxypropylcellulose) (HPC)
[18] = dose: 200.0 mg/kg/injection, schedule: Q01DX005 (ip), vehicle: Klucel (hydroxypropylcellulose) (HPC)
[19] = dose: 100.0 mg/kg/injection, schedule: Q01DX009 (ip), vehicle: saline with Tween-80
[20] = dose: 200.0 mg/kg/injection, schedule: Q01DX009 (ip), vehicle: saline with Tween-80
[21] = dose: 400.0 mg/kg/injection, schedule: Q01DX009 (ip), vehicle: saline with Tween-80
[22] = dose: 50.0 mg/kg/injection, schedule: Q01DX009 (ip), vehicle: saline with Tween-80

O=P(N1CCCC1)(N1CC1)N1CC1
T/C (dose: 6.25 mg/kg/injection, schedule: Q01DX009 (ip), vehicle: saline): 109 % of control | T/C (dose: 8.3 mg/kg/injection, schedule: Q04DX003 (ip), vehicle: saline): 172 % of control | T/C (dose: 12.5 mg/kg/injection, schedule: Q01DX009 (ip), vehicle: saline): 90 % of control | T/C [1]: 209 % of control | T/C (dose: 18.7 mg/kg/injection, schedule: Q04DX003 (ip), vehicle: saline): 236 % of control

COC1CC(=O)C2OC(c3ccccc3)OCC2O1 (stereo not given)
T/C (dose: 1.56 mg/kg/injection, schedule: Q01DX009 (ip), vehicle: other): 88 % of control | T/C (dose: 3.13 mg/kg/injection, schedule: Q01DX009 (ip), vehicle: other): 94 % of control | T/C (dose: 6.25 mg/kg/injection, schedule: Q01DX009 (ip), vehicle: other): 106 % of control | T/C [2]: 96 % of control | T/C [3]: 100 % of control and 97 % of control | T/C [4]: 99 % of control | T/C [5]: 92 % of control | T/C [6]: 87 % of control | T/C (dose: 400.0 mg/kg/injection, schedule: Q01DX009 (ip), vehicle: other): 98 % of control

C1=C(c2ccccc2)C(=Nc2ccccc2)SC1=Nc1ccccc1
T/C (dose: 1.87 mg/kg/injection, schedule: Q01DX005 (ip), vehicle: saline with Tween-80): 113 % of control | T/C [7]: 107 % of control | T/C [8]: 100 % of control | T/C [9]: 120 % of control | T/C [10]: 122 % of control | T/C [11]: 120 % of control

C[C@]12CCC(=O)C=C1CC[C@@H]1[C@@H]2[C@@H](O)C[C@@]2(C)[C@H]1CC[C@]2(O)C(=O)COC(=O)COCC(=O)O
T/C [12]: 104 % of control | T/C [13]: 100 % of control | T/C [14]: 116 % of control

CC#CC#C/C=C1/C=CC(=O)O1
T/C (dose: 12.5 mg/kg/injection, schedule: Q01DX009 (ip), vehicle: Klucel (hydroxypropylcellulose) (HPC)): 105 % of control | T/C (dose: 25.0 mg/kg/injection, schedule: Q01DX009 (ip), vehicle: Klucel (hydroxypropylcellulose) (HPC)): 104 % of control | T/C (dose: 50.0 mg/kg/injection, schedule: Q01DX009 (ip), vehicle: Klucel (hydroxypropylcellulose) (HPC)): 107 % of control | T/C [15]: 107 % of control

COc1cccc2c1C(=O)c1c(O)c3c(c(O)c1C2=O)CC(O)(C(=O)CO)CC3OC1CC(NCC2(O)OCC(O)C(O)C2O)C(O)C(C)O1 (stereo not given)
T/C (dose: 14.5 mg/kg/injection, schedule: Q04DX003 (ip), vehicle: water): 179 % of control | T/C (dose: 29.0 mg/kg/injection, schedule: Q04DX003 (ip), vehicle: water): 239 % of control | T/C (dose: 58.0 mg/kg/injection, schedule: Q04DX003 (ip), vehicle: water): 116 % of control

CCOC(OCC)C(=O)NNS(=O)(=O)c1ccc(C)cc1
T/C [2]: 105 % of control | T/C [3]: 106 % of control | T/C [4]: 100 % of control | T/C [5]: 99 % of control | T/C [6]: 90 % of control

Cc1ccc(S(=O)c2ccccc2C(O)(C(F)(F)F)C(F)(F)F)cc1 (stereo not given)
T/C [16]: 99 % of control | T/C [17]: 99 % of control | T/C [18]: 92 % of control

[Br][Sn]([Br])([CH2]c1ccccc1)[c]1ccccc1
T/C (dose: 1.56 mg/kg/injection, schedule: Q04DX003 (ip), vehicle: saline): 101 % of control and 102 % of control | T/C (dose: 3.12 mg/kg/injection, schedule: Q04DX003 (ip), vehicle: saline): 99 % of control and 102 % of control | T/C (dose: 6.25 mg/kg/injection, schedule: Q04DX003 (ip), vehicle: saline with Tween-80): 118 % of control | T/C (dose: 6.25 mg/kg/injection, schedule: Q04DX003 (ip), vehicle: saline): 105 % of control and 106 % of control | T/C [1]: 99 % of control and 104 % of control

O=C(Nc1ccc([N+](=O)[O-])cc1)Nc1ccc([N+](=O)[O-])cc1 (tested in a mixture with another compound)
T/C [15]: 103 % of control | T/C [19]: 100 % of control | T/C (dose: 200.0 mg/kg/injection, schedule: Q01DX009 (ip), vehicle: Klucel (hydroxypropylcellulose) (HPC)): 117 % of control | T/C [20]: 100 % of control | T/C (dose: 400.0 mg/kg/injection, schedule: Q01DX009 (ip), vehicle: Klucel (hydroxypropylcellulose) (HPC)): 117 % of control | T/C [21]: 104 % of control

CC[P+](CC)(c1ccccc1)c1ccccc1
T/C (dose: 3.12 mg/kg/injection, schedule: Q01DX005 (ip), vehicle: saline): 94 % of control | T/C (dose: 6.25 mg/kg/injection, schedule: Q01DX005 (ip), vehicle: saline): 95 % of control | T/C (dose: 12.5 mg/kg/injection, schedule: Q01DX005 (ip), vehicle: saline): 100 % of control

CCCCCCC1(/C=C/c2ccc(Cl)cc2Cl)OCCCO1
T/C (dose: 50.0 mg/kg/injection, schedule: Q01DX009 (ip), vehicle: saline + alcohol): 94 % of control | T/C (dose: 100.0 mg/kg/injection, schedule: Q01DX009 (ip), vehicle: saline + alcohol): 97 % of control | T/C (dose: 200.0 mg/kg/injection, schedule: Q01DX009 (ip), vehicle: saline + alcohol): 97 % of control

O=C(CSC1CCc2ccccc21)N/N=C/c1ccco1 (stereo not given)
T/C [16]: 98 % of control | T/C [17]: 100 % of control | T/C [18]: 88 % of control

COc1ccc(N=N/N=c2\sc3cc(Cl)ccc3n2C)cc1
T/C [7]: 115 % of control | T/C (dose: 15.0 mg/kg/injection, schedule: Q01DX005 (ip), vehicle: saline with Tween-80): 113 % of control and 121 % of control | T/C [8]: 115 % of control and 124 % of control | T/C [9]: 112 % of control

CN=C(N)N/N=C(\c1ccc(F)cc1)c1ccccc1Cl
T/C (dose: 25.0 mg/kg/injection, schedule: Q04DX002 (ip), vehicle: saline with Tween-80): 101 % of control | T/C (dose: 50.0 mg/kg/injection, schedule: Q04DX002 (ip), vehicle: saline with Tween-80): 100 % of control | T/C (dose: 100.0 mg/kg/injection, schedule: Q04DX002 (ip), vehicle: saline with Tween-80): 98 % of control

Cc1ccc(N=Nc2c(O)n(-c3ccccc3C)c(=S)n(-c3ccc(Br)cc3)c2=O)cc1
T/C [22]: 100 % of control | T/C [19]: 101 % of control

C[Si](C)(C)CN=P(c1ccccc1)(c1ccccc1)c1ccccc1
T/C [9]: 102 % of control | T/C [10]: 103 % of control | T/C [11]: 105 % of control

[N-]=[N+]=Nc1ccnc2c(C(F)(F)F)cccc12
T/C [9]: 108 % of control | T/C [10]: 100 % of control | T/C [11]: 92 % of control

COc1ccc(-c2c(CC(=O)O)c3cc(OC)ccc3n2Cc2ccc(Cl)cc2)cc1
T/C [22]: 101 % of control | T/C [19]: 100 % of control | T/C [12]: 90 % of control | T/C [20]: 100 % of control | T/C [13]: 90 % of control | T/C [21]: 91 % of control | T/C [14]: 90 % of control

Cc1ccc(S(=O)(=O)/N=C2\C=CC=C\C2=C2\Sc3ccccc3N2C)cc1
T/C (dose: 100.0 mg/kg/injection, schedule: Q04DX003 (ip), vehicle: saline): 102 % of control | T/C (dose: 200.0 mg/kg/injection, schedule: Q04DX003 (ip), vehicle: saline): 99 % of control | T/C (dose: 400.0 mg/kg/injection, schedule: Q04DX003 (ip), vehicle: saline): 95 % of control

Nc1nc(=S)c2ncn(C3OC(CO)CC3O)c2[nH]1 (stereo not given)
T/C (dose: 26.4 mg/kg/injection, schedule: Q04DX003 (ip), vehicle: saline): 122 % of control | T/C (dose: 150.0 mg/kg/injection, schedule: Q04DX003 (ip), vehicle: saline): 116 % of control
